From patent publication US11471484B2, “Fullerene and its use to maintain good health and to prolong the expected lifespan of mammals” (priority 2011, dated 2022)

Legend:
[1] = test system: mice; test: Acute or sub-acute toxicity in mice; format: in vivo; conditions: large amounts administered
Excerpt: (§1) Free radicals are constantly formed in vivo. Some of these molecules are physiologically useful, but they can also result in pathological oxidative stress to cells and tissues. Endogenous defences include both antioxidants and repairing systems. However, excess production of free radicals, their production in inappropriate relative amounts or deficiencies in endogenous defences can have deleterious effects. Free radicals can cause oxidative damage to lipids, DNA, bio molecules, rises in the concentration of intracellular calcium, as well as activation of proteases, nucleases and protein kinases. Considerable evidence supports the view that oxidative damage involving free radicals occurs in most, if not all, human diseases. Oxidative stress is now recognized as an important contributor to the development of many human diseases including liver fibrosis, ischemia-reperfusion, atherosclerosis, several neurological disorders and age-related cancer as well as to process of ageing. Thus antioxidants and systems that can protect against oxidative stress are needed to maintain health and prolong the expected lifespan in metazoans. This has led to attempts to develop additional antioxidants to supplement the antioxidant defences of cells as potential therapeutic agents. […]

[2] = Dissolution of C60 in vegetable oil; format: physicochemical; conditions: in less than one week
Excerpt: as §1

[3] = test system: rats; test: Longevity and chronic toxicity study in rats, oral gavage; format: in vivo
Description: The rats were housed one per cage and acclimated for 14 days, before dosing. Three groups of 10 rats (10 months old, weighing 495±31 g) were administered daily for one week, then weekly until the end of the second month and then every two weeks until the end of the 7th month, by gavages with 1 ml of water or olive oil or Ceo dissolved in olive oil (0.8 mg/ml), respectively. The rats were weighed before each dosing. Routine observations following official recommendations (EC Commission Directive 2004/73/EC of 29 Apr. 2004 Adapting to Technical Progress for the Twenty-Ninth Time Council Directive 67/548/EEC on the Approximation of the Laws, Regulations and Administrative Provisions Relating to the Classification, Packaging and Labeling of Dangerous Substances. O.J. No. L1522004) were made on all animals inside and outside the cage once a day throughout the study for signs of departure from normal activity, morbidity and mortality.
This experiment was initiated after observing that Ceo is absorbed through oral administration. To study the chronic toxicity of Ceo we designed a protocol according to the general guidelines of US food and drug administration (Chronic Toxicity Studies with Rodents in Toxicological Principles for the Safety Assessment of Food Ingredients. Redbook 2000, revised July 2007, Chapter IV.C.5.a. IV.C.5.a.) with some modifications. […]

[4] = test system: rats; test: Acute or sub-acute toxicity in rats; format: in vivo; conditions: large amounts administered
Excerpt: as §1

[5] = test system: acute carbon tetrachloride intoxication in rats (free-radical-mediated liver injury); conditions: CCl4 model, intra-peritoneal, aqueous suspension; cited from earlier work
[6] = test system: acute carbon tetrachloride intoxication in rats (free-radical-mediated liver injury); test: C60-induced protection of the liver against acute toxicity of carbon tetrachloride in rats; format: in vivo; conditions: CCl4 model
Excerpt: Carbon tetrachloride is a classical hepatotoxicant that causes rapid liver damage progressing from steatosis to centrilobular necrosis. CCU intoxication in rodents is an important model far elucidation of the mechanism of action of hepatotoxic effects such as fatty degeneration, fibrosis, hepatocellular death, and carcinogenicity. These effects are consistent with the known induced metabolic activation of CCl4 to reactive intermediates, including CCl3″ and CCl02′ free radicals, and mobilization of intracellular calcium. Kupffer cells (liver resident macrophages) participate in the mechanism of toxicity of CCl4 in vivo by release of chemoattractants for neutrophils and a series of chemical mediators (cytokines). Both expression and synthesis of these cytokines are mainly modulated through redox-sensitive reactions. […] In a previous work, the effects of C60-pretreatments on acute carbon tetrachloride intoxication in rats, a classical model for studying free-radical-mediated liver injury was reported.

[7] = Pharmacokinetics and biodistribution of an oily solution after oral and intra-peritoneal administration in rats; format: in vivo, male Wistar rats
Description: Pharmacokinetic studies were carried out with male Wistar rats (weighing 200-220 g). Rats were housed in individual cages and maintained in an air-conditioned room (22-25° C.) on a 12 h light/dark cycle with water and food available. The rats were acclimated for 7 days and they were fasted overnight but with access to water, before treatment.
Under general anesthesia, a catheter was introduced into the rat right jugular vein, positioned subcutaneously with the tip in the inter-scapular region. The prepared rats were then allowed to recover for 24 h, and the blood catheters were flushed with 0.9% NaCl solution containing 20 I U/ml of heparin to avoid possible clot obstruction. Before Ceo administration, the rats were fasted overnight but with access to water. The same single dose of Ceo (4 mg/kg) was delivered orally, by a gavages needle, or intra-peritoneally to two groups of three rats. Blood (0.20 ml) was withdrawn via the canular prior to dosing (f=0) and at 15, 30, 60 min and then at 2, 4, 8, 10, 12, 24 and 48 h post-dosing. Antithrombin heparin (20 IU/ml) was added in each blood sample. After each blood collection 0.20 ml of sterile 0.9% NaCl solution were injected to the animal, to avoid hypovolemia. The rats were sacrificed 48 h after eo administration for organ collection (livers, spleens, and brains).
Consequently, the area under the curve (AUC) is about 5 times larger when Ceo is administered by i.p. route as compared to oral route.

Structure (SMILES): c12c3c4c5c1c1c6c7c2c2c8c3c3c9c4c4c%10c5c5c1c1c6c6c%11c7c2c2c7c8c3c3c8c9c4c4c9c%10c5c5c1c1c6c6c%11c2c2c7c3c3c8c4c4c9c5c1c1c6c2c3c41 [[60]fullerene]
- acute or sub-acute toxicity [1]: no acute or sub-acute toxicity could be observed
- amount dissolved per g of oil ([2]; olive oil): up to 1 mg of C60 per g
- amount dissolved per g of oil ([2]; soybean oil): up to 1 mg of C60 per g
- longevity ([3]; oral administration): increases significantly the longevity
- behaviour or growth disorder ([3]; per os 1 ml of olive oil containing 0.8 mg C60 (FIG. 1)): No behaviour or growth disorder could be observed
- acute or sub-acute toxicity [4]: no acute or sub-acute toxicity could be observed
- day of better protection after administration [5]: 14 days
- most effective dose [5]: about 2.5 g/kg of body-weight
- activity in solution compared with suspension ([6]; compared with results of Nano Letters 2005): about 100 times
- time of effect after administration ([6]; fullerene in solution): 24 h
- area under the curve (AUC), i.p. route as compared to oral route ([7]; 4 mg/kg, i.p. versus oral): about 5 times
- distribution, brain barrier ([7]; 4 mg/kg, oral or i.p.): can cross the brain barrier
- absorption and elimination ([7]; intraperitoneal or oral administration): absorbed and eliminated
